Literature values, collected in patent US10722577B2, “Methods for treating GI syndrome and graft versus host disease” (Sloan Kettering Institute for Cancer Research, priority 2012, dated 2020).

Tested on: in vitro models of GvHD
Conditions: previous work, U.S. Ser. No. 12/599,280; cited from earlier work

C[C@@H]1[C@H](O)[C@@H](C)/C=C/C=C/CC/C=C/C=C/C=C/C=C/C(O[C@H]2O[C@H](C)[C@@H](O)[C@H](N)[C@@H]2O)CC2O[C@](O)(CC(O)C(O)CCC(O)CC(O)CC(O)CC(=O)O[C@H]1C)CC(O)C2C(=O)O (stereo partly shown) [nystatin]
apoptosis in in vitro models of GvHD: beneficial effects in reducing apoptosis
